Results from the supplement of paper PMC10307832.

Assays:
Assay in all cases: relative viability (nuclei count vs DMSO), 5 days (fraction); higher = more cells survive
Doramapimod + Linsitinib = compound: Cc1ccc(-n2nc(C(C)(C)C)cc2NC(=O)Nc2ccc(OCCN3CCOCC3)c3ccccc23)cc1 [Doramapimod] + C[C@]1(O)C[C@@H](c2nc(-c3ccc4ccc(-c5ccccc5)nc4c3)c3c(N)nccn32)C1 [Linsitinib] (partner 1 µM)
Summary of the method: (§1)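 The day after seeding in 1536-well plates, lung cancer cell lines were treated by pin tool with a single drug, or with a fixed anchor-drug dose together with five library-drug doses (not always all listed) in √10 steps. After 5 days, a combined fix-and-stain solution (final 0.05% Triton X-100, 1% formaldehyde, 1 ug/ml Hoechst) was added. Nuclei counted on 4× images gave relative viability as treated counts over vehicle counts, reported as the median of duplicate plates.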

RAF265 + Phenformin = compound: Cn1c(Nc2ccc(C(F)(F)F)cc2)nc2cc(Oc3ccnc(-c4ncc(C(F)(F)F)[nH]4)c3)ccc21 [RAF265] + N=C(N)NC(=N)NCCc1ccccc1 [Phenformin] (partner 250 µM)
Summary of the method: as §1

IPA-3 + Vorinostat = compound: C1=CC=C2C(=C1)C=CC(=C2SSC3=C(C=CC4=CC=CC=C43)O)O [IPA-3] + O=C(CCCCCCC(=O)Nc1ccccc1)NO [Vorinostat] (partner 1 µM)
Summary of the method: as §1

IPA-3 + Tozasertib = compound: C1=CC=C2C(=C1)C=CC(=C2SSC3=C(C=CC4=CC=CC=C43)O)O [IPA-3] + Cc1cc(Nc2cc(N3CCN(C)CC3)nc(Sc3ccc(NC(=O)C4CC4)cc3)n2)n[nH]1 [Tozasertib] (partner 0.1 µM)
Summary of the method: as §1

Row | Cell Line | relative viability (Doramapimod + Linsitinib; first compound 0.02 µM) | relative viability (Doramapimod + Linsitinib; first compound 0.06325 µM) | relative viability (Doramapimod + Linsitinib; first compound 0.2 µM) | relative viability (Doramapimod + Linsitinib; first compound 0.6325 µM) | relative viability (Doramapimod + Linsitinib; first compound 2 µM) | relative viability (RAF265 + Phenformin; first compound 0.01 µM) | relative viability (RAF265 + Phenformin; first compound 0.03162 µM) | relative viability (RAF265 + Phenformin; first compound 0.1 µM) | relative viability (RAF265 + Phenformin; first compound 0.3162 µM) | relative viability (RAF265 + Phenformin; first compound 1 µM) | relative viability (IPA-3 + Vorinostat; first compound 0.2 µM) | relative viability (IPA-3 + Vorinostat; first compound 0.6325 µM) | relative viability (IPA-3 + Vorinostat; first compound 2 µM) | relative viability (IPA-3 + Vorinostat; first compound 6.325 µM) | relative viability (IPA-3 + Vorinostat; first compound 20 µM) | relative viability (IPA-3 + Tozasertib; first compound 0.2 µM) | relative viability (IPA-3 + Tozasertib; first compound 0.6325 µM) | relative viability (IPA-3 + Tozasertib; first compound 2 µM) | relative viability (IPA-3 + Tozasertib; first compound 6.325 µM) | relative viability (IPA-3 + Tozasertib; first compound 20 µM)
1 | LOU-NH91 | 0.967 | 0.91 | 0.972 | 1.06 | 0.686 | 0.86 | 0.639 | 0.721 | 0.64 | 0.52 | 0.946 | 0.804 | 0.902 | 0.87 | 1.08 | 0.649 | 0.669 | 0.649 | 0.656 | 0.742
2 | LU99A | 0.504 | 0.535 | 0.47 | 0.503 | 0.457 | 0.817 | 0.821 | 0.679 | 0.571 | 0.375 | 0.642 | 0.4 | 0.459 | 0.461 | 0.379 | 0.325 | 0.255 | 0.213 | 0.267 | 0.239
3 | LXF-289 | 0.961 | 0.92 | 0.896 | 0.933 | 0.939 | 0.52 | 0.526 | 0.476 | 0.372 | 0.338 | 0.825 | 0.862 | 0.692 | 0.827 | 0.898 | 0.23 | 0.164 | 0.218 | 0.186 | 0.192
4 | NCI-H23 | 0.648 | 0.528 | 0.511 | 0.664 | 0.565 | 0.754 | 0.749 | 0.669 | 0.544 | 0.59 | 0.735 | 0.616 | 0.595 | 0.611 | 0.501 | 0.506 | 0.367 | 0.432 | 0.38 | 0.354
5 | NCI-H322M | 0.851 | 0.834 | 0.909 | 1.01 | 0.874 | 0.759 | 0.815 | 0.44 | 0.366 | 0.269 | 0.92 | 0.948 | 1.02 | 1.07 | 1.11 | 0.502 | 0.408 | 0.527 | 0.498 | 0.513
6 | NCI-H358 | 0.68 | 0.598 | 0.611 | 0.722 | 0.667 | 0.419 | 0.308 | 0.252 | 0.144 | 0.149 | 0.785 | 0.618 | 0.783 | 0.619 | 0.803 | 0.107 | 0.0935 | 0.11 | 0.0943 | 0.119
7 | NCI-H441 | 0.528 | 0.512 | 0.541 | 0.553 | 0.442 | 0.914 | 0.833 | 0.725 | 0.628 | 0.633 | 0.881 | 0.637 | 0.748 | 0.731 | 0.948 | 0.738 | 0.596 | 0.739 | 0.739 | 0.524
8 | NCI-H460 | 0.71 | 0.736 | 0.733 | 0.875 | 0.641 | 0.529 | 0.463 | 0.483 | 0.399 | 0.394 | 0.94 | 0.665 | 0.729 | 0.626 | 0.504 | 0.464 | 0.462 | 0.727 | 0.516 | 0.453
9 | NCI-H520 | 0.937 | 1.11 | 0.838 | 0.963 | 0.897 | 0.553 | 0.544 | 0.579 | 0.555 | 0.397 | 0.713 | 0.849 | – | 0.579 | 0.796 | 0.459 | 0.444 | 0.468 | 0.434 | 0.447
10 | NCI-H596 | 0.99 | 1.03 | 1.02 | 1.05 | 1 | 0.869 | 0.833 | 0.691 | 0.689 | 0.489 | 0.722 | 0.772 | 0.578 | 0.694 | 0.656 | 0.968 | 0.907 | 1.11 | 1.02 | 1.04
11 | NCI-H647 | 1.22 | 1.24 | 1.15 | 1.03 | 1.04 | 0.432 | 0.515 | 0.38 | 0.282 | 0.212 | 0.628 | 0.376 | 0.581 | 0.544 | 0.151 | 0.463 | 0.298 | 0.266 | 0.415 | 0.161
12 | NCI-H650 | 0.93 | 1.03 | 1.08 | 0.923 | 0.785 | 0.469 | 0.438 | 0.383 | 0.348 | 0.289 | 0.465 | 0.518 | 0.361 | 0.486 | 0.507 | 0.823 | 0.694 | 0.786 | 0.703 | 0.831
13 | NCI-H661 | 0.634 | 0.568 | 0.555 | 0.741 | 0.599 | 0.258 | 0.27 | 0.275 | 0.281 | 0.261 | 0.796 | 0.764 | 0.865 | 0.732 | 0.778 | 0.328 | 0.356 | 0.358 | 0.338 | 0.347
14 | NCI-H727 | 0.166 | 0.221 | 0.366 | 0.317 | 0.278 | 0.531 | 0.502 | 0.452 | 0.341 | 0.398 | 1.25 | 1.01 | 1.27 | 1.07 | 1.2 | 0.659 | 0.615 | 0.828 | 0.529 | 0.568
15 | NCI-H838 | 0.9 | 1.04 | 1.02 | 1.1 | 0.994 | 0.733 | 0.606 | 0.521 | 0.499 | 0.517 | 0.776 | 0.697 | 0.75 | 0.706 | 0.794 | 0.32 | 0.268 | 0.304 | 0.282 | 0.27
16 | NCI-H1355 | 0.804 | 0.819 | 0.824 | 0.908 | 0.779 | 0.432 | 0.434 | 0.41 | 0.309 | 0.332 | 0.69 | 0.655 | 0.595 | 0.617 | 0.657 | 0.596 | 0.566 | 0.599 | 0.586 | 0.656
